# Source: PubChem BioAssay (NCI)
#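 Protocol summary: plate cells (96-well), add compound at 5 concentrations, incubate 48 h, interpolate endpoints linearly. TGI denotes the concentration required for complete inhibition of growth.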 Square brackets hold non-standard residues; d marks the D form. Peptide text beside a SMILES is read from it. * marks the point of attachment. Boc = CC(C)(C)OC(=O)*; OBn = c1ccc(CO*)cc1
# Tests used:
# Test in all cases: NCI tumour cell line growth inhibition, 48 h
# HCT-116 colon = tested on: HCT-116 colon
# HS 578T breast = tested on: HS 578T breast
# TK-10 renal = tested on: TK-10 renal
# UO-31 renal = tested on: UO-31 renal
# OVCAR-5 ovarian = tested on: OVCAR-5 ovarian
# UACC-62 melanoma = tested on: UACC-62 melanoma
# MALME-3M melanoma = tested on: MALME-3M melanoma
# NCI/ADR-RES ovarian = tested on: NCI/ADR-RES ovarian
# OVCAR-3 ovarian = tested on: OVCAR-3 ovarian
# NCI-H460 lung = tested on: NCI-H460 lung
# BT-549 breast = tested on: BT-549 breast
# T-47D breast = tested on: T-47D breast
# SK-MEL-5 melanoma = tested on: SK-MEL-5 melanoma
# MDA-N = tested on: MDA-N
# OVCAR-4 ovarian = tested on: OVCAR-4 ovarian
# SF-268 CNS = tested on: SF-268 CNS
# K-562 leukemia = tested on: K-562 leukemia
# MDA-MB-231 breast = tested on: MDA-MB-231 breast
# A498 renal = tested on: A498 renal
# HCC-2998 colon = tested on: HCC-2998 colon
# OVCAR-8 ovarian = tested on: OVCAR-8 ovarian
# MOLT-4 leukemia = tested on: MOLT-4 leukemia
# DU-145 prostate = tested on: DU-145 prostate
# A549 NSCLC = tested on: A549 NSCLC
# HT29 colon = tested on: HT29 colon
# M14 melanoma = tested on: M14 melanoma
# HOP-62 NSCLC = tested on: HOP-62 NSCLC
# UACC-257 melanoma = tested on: UACC-257 melanoma
# HOP-92 NSCLC = tested on: HOP-92 NSCLC
# SR leukemia = tested on: SR leukemia
# ACHN renal = tested on: ACHN renal
# HL-60(TB) leukemia = tested on: HL-60(TB) leukemia
# SK-MEL-2 melanoma = tested on: SK-MEL-2 melanoma
# 786-0 renal = tested on: 786-0 renal
# RXF 393 renal = tested on: RXF 393 renal
# U251 CNS = tested on: U251 CNS
# HCT-15 colon = tested on: HCT-15 colon
# SW-620 colon = tested on: SW-620 colon
# KM12 colon = tested on: KM12 colon
# NCI-H226 lung = tested on: NCI-H226 lung
# SN12C renal = tested on: SN12C renal
# SK-MEL-28 melanoma = tested on: SK-MEL-28 melanoma
# NCI-H23 lung = tested on: NCI-H23 lung
# EKVX NSCLC = tested on: EKVX NSCLC
# CAKI-1 renal = tested on: CAKI-1 renal
# SF-295 CNS = tested on: SF-295 CNS
# MDA-MB-435 = tested on: MDA-MB-435
# NCI-H522 lung = tested on: NCI-H522 lung
# IGROV1 ovarian = tested on: IGROV1 ovarian
# LOX IMVI melanoma = tested on: LOX IMVI melanoma
# PC-3 prostate = tested on: PC-3 prostate
# RPMI-8226 leukemia = tested on: RPMI-8226 leukemia
# SNB-19 CNS = tested on: SNB-19 CNS
# CCRF-CEM leukemia = tested on: CCRF-CEM leukemia
# SNB-75 CNS = tested on: SNB-75 CNS
# SF-539 CNS = tested on: SF-539 CNS
# MCF7 breast = tested on: MCF7 breast
# SK-OV-3 ovarian = tested on: SK-OV-3 ovarian
# COLO 205 colon = tested on: COLO 205 colon
smiles,measurement,setting,value
Cc1cc(OCC(=O)O)c(Cl)cc1Cl,TGI,HCT-116 colon,> 100 µM
same,TGI,HS 578T breast,> 100 µM
same,TGI,TK-10 renal,> 100 µM
same,TGI,UO-31 renal,> 100 µM
same,TGI,OVCAR-5 ovarian,> 100 µM
same,TGI,UACC-62 melanoma,> 100 µM
same,TGI,MALME-3M melanoma,> 100 µM
same,TGI,NCI/ADR-RES ovarian,> 100 µM
same,TGI,OVCAR-3 ovarian,> 100 µM
same,TGI,NCI-H460 lung,> 100 µM
same,TGI,BT-549 breast,> 100 µM
same,TGI,T-47D breast,> 100 µM
same,TGI,SK-MEL-5 melanoma,> 100 µM
same,TGI,MDA-N,> 100 µM
same,TGI,OVCAR-4 ovarian,> 100 µM
same,TGI,SF-268 CNS,> 100 µM
same,TGI,K-562 leukemia,> 100 µM
same,TGI,MDA-MB-231 breast,> 100 µM
same,TGI,A498 renal,> 100 µM
same,TGI,HCC-2998 colon,> 100 µM
same,TGI,OVCAR-8 ovarian,> 100 µM
same,TGI,MOLT-4 leukemia,> 100 µM
same,TGI,DU-145 prostate,> 100 µM
same,TGI,A549 NSCLC,> 100 µM
same,TGI,HT29 colon,> 100 µM
same,TGI,M14 melanoma,> 100 µM
same,TGI,HOP-62 NSCLC,> 100 µM
same,TGI,UACC-257 melanoma,> 100 µM
same,TGI,HOP-92 NSCLC,> 100 µM
same,TGI,SR leukemia,> 100 µM
same,TGI,ACHN renal,> 100 µM
same,TGI,HL-60(TB) leukemia,> 100 µM
same,TGI,SK-MEL-2 melanoma,> 100 µM
same,TGI,786-0 renal,> 100 µM
same,TGI,RXF 393 renal,> 100 µM
same,TGI,U251 CNS,> 100 µM
same,TGI,HCT-15 colon,> 100 µM
same,TGI,SW-620 colon,> 100 µM
same,TGI,KM12 colon,> 100 µM
same,TGI,NCI-H226 lung,> 100 µM
same,TGI,SN12C renal,> 100 µM
same,TGI,SK-MEL-28 melanoma,> 100 µM
same,TGI,NCI-H23 lung,> 100 µM
same,TGI,EKVX NSCLC,> 100 µM
same,TGI,CAKI-1 renal,> 100 µM
same,TGI,SF-295 CNS,> 100 µM
same,TGI,MDA-MB-435,> 100 µM
same,TGI,NCI-H522 lung,> 100 µM
same,TGI,IGROV1 ovarian,> 100 µM
same,TGI,LOX IMVI melanoma,> 100 µM
same,TGI,PC-3 prostate,> 100 µM
same,TGI,RPMI-8226 leukemia,> 100 µM
same,TGI,SNB-19 CNS,> 100 µM
C[C@@H](NC(=O)CNC(=O)OC(C)(C)C)C(=O)N[C@@H](Cc1ccccc1)C(=O)OCc1ccccc1 (Boc-Gly-[dA]-Phe-OBn),TGI,HCT-116 colon,> 100 µM
same,TGI,HS 578T breast,71.2 µM
same,TGI,TK-10 renal,> 100 µM
same,TGI,CCRF-CEM leukemia,67 µM
same,TGI,UO-31 renal,> 100 µM
same,TGI,OVCAR-5 ovarian,> 100 µM
same,TGI,UACC-62 melanoma,> 100 µM
same,TGI,MALME-3M melanoma,32.6 µM
same,TGI,NCI/ADR-RES ovarian,> 100 µM
same,TGI,BT-549 breast,> 100 µM
same,TGI,SNB-75 CNS,> 100 µM
same,TGI,T-47D breast,> 100 µM
same,TGI,SK-MEL-5 melanoma,42.2 µM
same,TGI,MDA-N,> 100 µM
same,TGI,OVCAR-4 ovarian,> 100 µM
same,TGI,SF-268 CNS,> 100 µM
same,TGI,K-562 leukemia,64.4 µM
same,TGI,MDA-MB-231 breast,> 100 µM
same,TGI,OVCAR-8 ovarian,> 100 µM
same,TGI,MOLT-4 leukemia,88.1 µM
same,TGI,DU-145 prostate,> 100 µM
same,TGI,A549 NSCLC,> 100 µM
same,TGI,HT29 colon,> 100 µM
same,TGI,M14 melanoma,44.7 µM
same,TGI,UACC-257 melanoma,> 100 µM
same,TGI,HOP-92 NSCLC,45.3 µM
same,TGI,SR leukemia,88.9 µM
same,TGI,ACHN renal,> 100 µM
same,TGI,HL-60(TB) leukemia,> 100 µM
same,TGI,SK-MEL-2 melanoma,> 100 µM
same,TGI,786-0 renal,> 100 µM
same,TGI,RXF 393 renal,> 100 µM
same,TGI,U251 CNS,> 100 µM
same,TGI,HCT-15 colon,> 100 µM
same,TGI,SW-620 colon,> 100 µM
same,TGI,SF-539 CNS,> 100 µM
same,TGI,KM12 colon,> 100 µM
same,TGI,MCF7 breast,> 100 µM
same,TGI,NCI-H226 lung,> 100 µM
same,TGI,SN12C renal,> 100 µM
same,TGI,SK-OV-3 ovarian,> 100 µM
same,TGI,SK-MEL-28 melanoma,39.4 µM
same,TGI,NCI-H23 lung,> 100 µM
same,TGI,EKVX NSCLC,> 100 µM
same,TGI,CAKI-1 renal,> 100 µM
same,TGI,SF-295 CNS,> 100 µM
same,TGI,MDA-MB-435,> 100 µM
same,TGI,COLO 205 colon,32.7 µM
same,TGI,NCI-H522 lung,80.4 µM
same,TGI,IGROV1 ovarian,> 100 µM
same,TGI,LOX IMVI melanoma,58 µM
same,TGI,PC-3 prostate,> 100 µM
same,TGI,SNB-19 CNS,> 100 µM
CC(C)C(=O)OCN(C)c1nc(N(C)COC(=O)C(C)C)nc(N(C)COC(=O)C(C)C)n1,TGI,HCT-116 colon,> 100 µM
same,TGI,HS 578T breast,49.1 µM
same,TGI,TK-10 renal,> 100 µM
same,TGI,CCRF-CEM leukemia,70.5 µM
same,TGI,UO-31 renal,52.5 µM
same,TGI,OVCAR-5 ovarian,95.3 µM
same,TGI,NCI/ADR-RES ovarian,> 100 µM
same,TGI,OVCAR-3 ovarian,> 100 µM
same,TGI,NCI-H460 lung,54.2 µM
same,TGI,BT-549 breast,46.2 µM
same,TGI,SNB-75 CNS,61.9 µM
same,TGI,T-47D breast,> 100 µM
same,TGI,SK-MEL-5 melanoma,28.4 µM
same,TGI,MDA-N,46.2 µM
same,TGI,OVCAR-4 ovarian,58.3 µM
same,TGI,K-562 leukemia,> 100 µM
same,TGI,MDA-MB-231 breast,57.7 µM
same,TGI,A498 renal,> 100 µM
same,TGI,OVCAR-8 ovarian,45.5 µM
same,TGI,MOLT-4 leukemia,58.1 µM
same,TGI,DU-145 prostate,> 100 µM
same,TGI,A549 NSCLC,> 100 µM
same,TGI,HT29 colon,66.3 µM
same,TGI,M14 melanoma,33 µM
same,TGI,HOP-62 NSCLC,> 100 µM
same,TGI,UACC-257 melanoma,38.2 µM
same,TGI,SR leukemia,50.5 µM
same,TGI,ACHN renal,99.6 µM
same,TGI,HL-60(TB) leukemia,48.9 µM
same,TGI,SK-MEL-2 melanoma,49.8 µM
same,TGI,786-0 renal,65.2 µM
same,TGI,HCT-15 colon,51 µM
same,TGI,SW-620 colon,89.6 µM
same,TGI,SF-539 CNS,53.9 µM
same,TGI,KM12 colon,43.9 µM
same,TGI,MCF7 breast,> 100 µM
same,TGI,NCI-H226 lung,> 100 µM
same,TGI,SN12C renal,> 100 µM
same,TGI,SK-MEL-28 melanoma,44.5 µM
same,TGI,NCI-H23 lung,41.2 µM
same,TGI,EKVX NSCLC,> 100 µM
same,TGI,CAKI-1 renal,> 100 µM
same,TGI,SF-295 CNS,93.2 µM
same,TGI,MDA-MB-435,32.2 µM
same,TGI,COLO 205 colon,51.3 µM
same,TGI,NCI-H522 lung,36 µM
same,TGI,LOX IMVI melanoma,39.1 µM
same,TGI,PC-3 prostate,> 100 µM
same,TGI,RPMI-8226 leukemia,> 100 µM
same,TGI,SNB-19 CNS,> 100 µM
